According to US20180193365A1, “USE OF HYDROGEN SULFIDE TO PREVENT LENS OPACIFICATION” (Creighton University, priority 2017, published 2018):
Entries after “also recorded” stand apart in the source; their conditions may differ.

Tests used:
cultured bovine lenses [1] = assay: H2O2-induced lens degradation/opacification in cultured bovine lenses (light transmittance, photographs); format: cell-based
glutathione (GSH) = details: 50 mM; 120 hours
cultured bovine lenses [2] = assay: Lens degradation/opacification of DMEM-cultured bovine lenses (light transmittance, photographs); format: cell-based; details: 120 hours; for attenuation of light transmittance compared to untreated DMEM lenses (time=0 hours): 420 nm

Compound	decrease of light transmittance compared to DMEM-cultured lenses (time=0 hour) (cultured bovine lenses [1]; 50 mM, after 120 hours) [%]	attenuation of GSH content compared to untreated lenses (time=0 hours) (glutathione (GSH)) [%]	attenuation of light transmittance compared to untreated DMEM lenses (time=0 hours) (cultured bovine lenses [2]; 3 mM) [%]	attenuation of light transmittance compared to untreated DMEM lenses (time=0 hours) (cultured bovine lenses [2]; 10 mM) [%]	qualitative assessment of lens opacity (photographs against grid) (cultured bovine lenses [2]; 10 mM)	attenuation of H2O2-induced inhibition of light transmittance (cultured bovine lenses [1]; 3 mM, H2O2 50 mM, 120 hours) [%]	qualitative assessment of H2O2-induced lens opacity (photographs against grid) (cultured bovine lenses [1]; 3 mM, H2O2 50 mM, 120 hours)	protection from peroxide-induced lens degradation (cultured bovine lenses [1]; 10 mM, H2O2 50 mM, 120 hours)
OO [H2O2, hydrogen peroxide]	36.76	82.56	–	–	–	–	–	–
O=C1O[C@H]([C@@H](O)CO)C(O)=C1O [ascorbic acid]	–	–	60.57	57.42	accelerated the degradation process; also recorded: accelerated lens degradation; also recorded: accelerated clouding of the lens	9.22	protected lenses from peroxide-induced degradation	failed to protect
